From ChEMBL document CHEMBL1147497, “The inhibition of metallo-beta-lactamase by thioxo-cephalosporin derivatives” (Bioorg Med Chem Lett, 2004) come the findings set out here.

Data set [1] is described as follows: Binding affinity against nitrocefin.
Data set [2] can be described thus: pKa in water at 30 degree C. It counts as physicochemical.

The structures appear in SMILES notation.

The molecule `CC1=C(C(=O)O)N2C(=S)[C@@H](NC(=O)Cc3ccccc3)[C@H]2SC1` showed a Ki in data set [1] of 720 µM.

In data set [2], `CC1=C(C(=O)O)N[C@@H](C2NC(=O)C(c3ccccc3)N=C2S)SC1` (some centres not stated) showed a pKa of 10.1.

For orientation: Ki means the dissociation constant of the complex between target and ligand, obtained from inhibition or displacement. One may read the pKa as the negative logarithm of the acid dissociation constant.
